{
  "source": "patent US20240423945A1",
  "about": "“USE OF FERROPTOSIS INHIBITOR IN PREPARATION OF DRUG FOR TREATING GASTRITIS” (CHILDREN'S HOSPITAL OF CHONGQING MEDICAL UNIVERSITY, priority 2022, published 2024)",
  "key": {"[1]": {"tested_on": "GES-1-134 cell (GRIM-19-knockout human gastric mucosal epithelial cell GES-1)", "test": "CCK-8 proliferation viability of GES-1-134 cell intervened with ferrostatin-1", "format": "cell-based", "details": "CCK-8, FIG. 8", "experimental": "A CCK-8 kit (Solarbio) was used to analyze the proliferation viability changes of GES-1-NC and GES-1-134 cells, and a specific process was as follows: • (1) The cells were inoculated into a 96-well plate at 5,000 cells/well. • (2) The cells were cultivated at 37° C. and 5% CO2 for 24 h, 48 h, and 72 h. • (3) 10 μL of a CCK-8 solution was added to each well during detection. • (4) The plate was incubated in an incubator for 1 h. • (5) A microplate reader was used to determine the absorbance at 450 nm.\nA CCK-8 kit was used to analyze a change of proliferation viability of the GES-1-134 cell intervened with the ferroptosis inhibitor ferrostatin-1. After the GES-1-134 cell was intervened with the ferroptosis inhibitor ferrostatin-1, the proliferation ability was increased and the viability was recovered."}, "[2]": {"tested_on": "ferroptosis marker proteins (COX2, GPX4, FTH1, and TFR) in the GES-1-134 cell", "test": "WB of ferroptosis marker proteins in GES-1-134 cell treated with ferrostatin-1", "format": "cell-based, Human", "details": "ferrostatin-1 0, 5, 10 μM, FIG. 9A", "experimental": "(§1) 4. The expression of GRIM-19 was analyzed by WB, and a specific process was as follows: • (1) The cells were subjected to lysis with an RIPA lysis buffer (Beyotime) on ice for 30 min or more. • (2) A resulting lysate was centrifuged at 12,000 rpm for 10 min, and a resulting supernatant was collected. • (3) A corresponding volume of a sodium dodecyl sulfate-polyacrylamide gel electrophoresis (SDS-PAGE) protein loading buffer was added, and a resulting mixture was incubated in a metal bath at 100° C. for 10 min. • (4) SDS-PAGE was conducted. • (5) Blocking was conducted at room temperature for 30 min. • (6) A primary antibody was added, and a resulting mixture was incubated overnight at 4° C. on a shaker. • (7) A membrane was washed with TBST three times for 10 min each time. • (8) A secondary antibody was added, and a resulting mixture was incubated for 1 h at room temperature on a shaker. • (9) A membrane was washed with TBST three times for 10 min each time. • (10) Development was conducted.\n(§2) WB was used to analyze the expression of ferroptosis markers in the GES-1-134 cell and the GRIM-19^−/− mouse gastric mucosal tissue that each were intervened with ferrostatin-1."}, "[3]": {"tested_on": "ferroptosis marker proteins (COX2, GPX4, FTH1, and TFR) in the GRIM-19−/− mouse gastric mucosal tissue", "test": "WB of ferroptosis marker proteins in GRIM-19−/− mouse gastric mucosal tissue intervened with ferrostatin-1", "format": "in vivo", "details": "ferrostatin-1 injected, FIG. 9B", "experimental": "as §1, §2"}, "[4]": {"tested_on": "inflammatory factors IL-6, TNF-α, VEGF, GM-CSF, IL-1β, and IL-33 in the GES-1-134 cell", "test": "WB of inflammatory factors in GES-1-134 cell intervened with ferrostatin-1", "format": "cell-based, Human", "details": "GES-1-134 cell in vitro, FIG. 10A", "experimental": "as §1\n(§3) WB was used to detect the expression of inflammatory factors in the GES-1-134 cell and GRIM-19^−/− mouse after being intervened with the ferroptosis inhibitor ferrostatin-1."}, "[5]": {"tested_on": "inflammatory factors in the GRIM-19−/− mouse gastric mucosal tissue", "test": "WB of inflammatory factors in GRIM-19−/− mouse gastric mucosal tissue intervened with ferrostatin-1", "format": "in vivo", "experimental": "as §1, §3"}, "[6]": {"tested_on": "SPEM marker proteins TFF2, Mist1, Clusterin-1, HE4, and MUC6 in the GRIM-19−/− mouse gastric mucosal tissue", "test": "WB of SPEM markers in GRIM-19−/− mouse gastric mucosal tissue intervened with ferrostatin-1", "format": "in vivo", "details": "intraperitoneally injected, compared with the PBS injection control, FIG. 11A", "experimental": "as §1\nWB was used to detect the expression of SPEM markers in the gastric mucosal tissue of the GRIM-19^−/− mouse intraperitoneally injected with the ferroptosis inhibitor ferrostatin-1."}, "[7]": {"tested_on": "GIF, GSII, and Mist1 positive cells in GRIM-19−/− mouse gastric mucosal tissue", "test": "GIF/GSII/Mist1 immunofluorescence colocalization analysis of SPEM markers in GRIM-19−/− mouse gastric mucosal tissue", "format": "in vivo", "details": "intraperitoneally injected, compared with the PBS group, FIG. 11B", "experimental": "After a mouse was intraperitoneally injected with the ferroptosis inhibitor ferrostatin-1, an immunofluorescence technique was used to analyze the GIF, GSII, and Mist1 positive colocalization expression of SPEM markers in a gastric mucosal tissue, and a specific process was as follows: • (1) embedding a tissue with OCT; • (2) sectioning; • (3) fixing with 4% PFA; • (4) blocking with serum; • (5) incubating with a primary antibody overnight at 4° C.; • (6) rinsing with PBS 3 times; • (7) incubating with a secondary antibody at room temperature for 2 h; • (8) rinsing with PBS 3 times; • (9) counter-staining with DAPI for 10 min; • (10) rinsing with PBS 3 times; and • (11) mounting with an anti-fluorescence attenuation agent."}, "[8]": {"details": "compared with the PBS injection control, WB, FIG. 10B"}},
  "data": [
    {"smiles": "CCOC(=O)c1ccc(NC2CCCCC2)c(N)c1", "note": "[ferrostatin-1]", "values": [
      {"measurement": "proliferation ability", "setting": "[1]", "result": "increased"},
      {"measurement": "viability", "setting": "[1]", "result": "recovered"},
      {"measurement": "expression level of COX-2", "setting": "[2]", "result": "decreased"},
      {"measurement": "expression level of FTH1", "setting": "[2]", "result": "increased"},
      {"measurement": "expression level of GPX4", "setting": "[2]", "result": "increased"},
      {"measurement": "expression level of TFR", "setting": "[2]", "result": "decreased"},
      {"measurement": "expression level of COX-2", "setting": "[3]", "result": "showed the same change trend"},
      {"measurement": "expression level of FTH1", "setting": "[3]", "result": "showed the same change trend"},
      {"measurement": "expression level of GPX4", "setting": "[3]", "result": "showed the same change trend"},
      {"measurement": "expression level of TFR", "setting": "[3]", "result": "showed the same change trend"},
      {"measurement": "expression level of GM-CSF", "setting": "[4]", "result": "significantly reduced"},
      {"measurement": "expression level of IL-1β", "setting": "[4]", "result": "significantly reduced"},
      {"measurement": "expression level of IL-6", "setting": "[4]", "result": "significantly reduced"},
      {"measurement": "expression level of IL-33", "setting": "[4]", "result": "significantly reduced"},
      {"measurement": "expression level of TNF-α", "setting": "[4]", "result": "significantly reduced"},
      {"measurement": "expression level of VEGF", "setting": "[4]", "result": "significantly reduced"},
      {"measurement": "expression level of IL-6", "setting": "[5]; [8]", "result": "significantly reduced"},
      {"measurement": "expression level of TNF-α", "setting": "[5]; [8]", "result": "significantly reduced"},
      {"measurement": "expression of GM-CSF", "setting": "[5]; in vivo injection", "result": "effectively reduce"},
      {"measurement": "expression of IL-1β", "setting": "[5]; in vivo injection", "result": "effectively reduce"},
      {"measurement": "expression of IL-33", "setting": "[5]; in vivo injection", "result": "effectively reduce"},
      {"measurement": "expression of VEGF", "setting": "[5]; in vivo injection", "result": "effectively reduce"},
      {"measurement": "expression of Clusterin-1", "setting": "[6]", "result": "significantly weakened"},
      {"measurement": "expression of HE4", "setting": "[6]", "result": "significantly weakened"},
      {"measurement": "expression of MUC6", "setting": "[6]", "result": "significantly weakened"},
      {"measurement": "expression of Mist1", "setting": "[6]", "result": "significantly weakened"},
      {"measurement": "expression of TFF2", "setting": "[6]", "result": "significantly weakened"},
      {"measurement": "number of GIF+/GSII+ double-positive cells", "setting": "[7]", "result": "decreased"},
      {"measurement": "number of GIF+/GSII+/Mist1+ triple-positive cells", "setting": "[7]", "result": "decreased"},
      {"measurement": "number of GIF+/Mist1+ double-positive cells", "setting": "[7]", "result": "decreased"},
      {"measurement": "number of positive cells (GIF+, GSII+, Mist1+)", "setting": "[7]", "result": "decreased significantly"}
    ]}
  ]
}
